Results: patent US20040166508A1, “Analytical platform and detection method with the analytes to be determined in a sample as immobilized specific binding partners, optionally after fractionation of said sample” (priority 2002, published 2004)

Test system: pErk2 (Phospho-p44/42 MAP kinase (Thr202/Tyr204))
Assay: Detection of pErk2 (phospho-p44/42 MAP kinase) in immobilized Jurkat cell lysates (antibody A3)
Assay type: cell-based, human
Conditions: Jurkat cells treated with 10 μM for 180 min
Method: Human T-cell cultures (Jurkat, DMZ # ACC282) are utilized for the detection of biologically relevant protein analytes in “immobilization samples”. These cells are cultivated at 37° C. in a solution containing RPMI 1640, 10% FCS (fetal calf serum), 2 mM glutamine, 50 U/ml penicillin, 50 μg/ml streptamycine (cell density at about 0.5×10^6-1.0×10^6 cells/ml). […] A cell culture, which is similar to the one described above but not treated with antibodies, is used as a comparison sample and shall serve as a negative control in the analytical detection method. […] The cells here are simply separated from the medium, without damage to the cells. The supernatant is then decanted, and lysis buffer (7 M urea, 2 M thiourea, 4% CHAPS, 1% DTT, 4 mM spermidine and Complete (protease inhibitor, Roche AG, 1 tablet/50 ml) is added, the total protein concentration being adjusted to about 10 mg/ml. Thereby, all protein-containing cell components are denatured spontaneously and completely and solubilized. The samples obtained by the preparation steps described above are again diluted by a factor of 10 to a total protein concentration of about 1 mg/ml, and are then deposited in discrete measurement areas for generating an array of measurement areas on the evanescent field sensor platform provided with the adhesion-promoting layer. […]

CN[C@@H]1C[C@H]2O[C@@](C)([C@@H]1OC)n1c3ccccc3c3c4c(c5c6ccccc6n2c5c31)C(=O)NC4 [staurosporin, staurosporine]
pErk2 signal of the nonstimulated control sample compared with the treated sample: only slightly higher
